Measurements: patent US20020127287A1, “Treatment of lyso paf-mediated disorders with lyso paf or paf antagonists and procedure for determining their efficacy” (priority 1990, published 2002)
Values joined by “and” are separate entries in the source; they are usually repeats but may differ in a detail not shown here. Equal entries are not always repeated. Marks after values point to notes of the source that are not given here. Blank lines part the entries; values can stand above or below the molecule they belong to.

Assays:
[1] = biological target: T1, paf receptors on eosinophils (Homo sapiens, UniProt P25105); experiment: [^3H]paf binding to intact human eosinophils
T1 construct: endogenous in cells; host or cells: intact human blood eosinophils (about 96% pure)

[2] = biological target: T2, paf receptors on neutrophils (PMN) (Homo sapiens, UniProt P25105); experiment: [^3H]paf binding to intact human neutrophils (PMN)
T2 construct: Neutrophils (PMN) were prepared from venous blood (40 ml) from normal donors; endogenous in cells; host or cells: intact neutrophils (PMN) from venous blood of normal donors

[3] = tested on: endothelial cell; experiment: [^3H]paf binding to endothelial cells
[4] = tested on: acetylhydrolase; experiment: acetylhydrolase activity, kinetic constants; format: biochemical, human; conditions: excess AAGPC
Experimental: Acetylhydrolase activity was measured in lysates of resting platelets or platelets stimulated with thrombin (0.5 IU/ml, 1 min, 37° C.), in supernatants of thrombin-activated platelets with or without acid-treated (inactivation of acetylhydrolase) plasma and in native plasma. Samples were incubated for 10 min at 37° C. in the presence of 0.1 μCi [^3H]acetyl paf and concentrations of unlabeled paf varying from 5 to 35 μM. The microenvironment modulates the acetylhydrolase indicating the origin of plasma acetylhydrolase from activated platelets.

[5] = tested on: endothelial cell prostacyclin release; experiment: endothelial cell prostacyclin release (6-keto-PGF1-alpha); format: cell-based
[6] = tested on: U 937 cells; experiment: cAMP levels of U 937 cells; format: cell-based; conditions: cholesterol 60 μg/ml, 24 hrs
Experimental: U 937 cells were grown in stationary suspension culture in RPMI 1640 containing 10% fetal calf serum (FCS) and 2 mM L-glutamine at 37° C. in a humidified atmosphere of 5% CO2 and 95% air. The cells were diluted with fresh medium (1/10, v/v) twice a week. After three days in culture, U 937 cells were centrifuged (1000×G for 10 min) and incubated for 24 hrs in RPMI 1640 medium containing 10% CPSR 1 (delipidated FCS) and 2 mM L-glutamine. Subsequently the cells were incubated in the delipidated FCS medium containing cholesterol (10-60 μg/ml), as compared with solvent alone (ethanol, 0.5% v/v, final concentration) for (2, 4 or 24 hrs).
Cyclic AMP in supernatants from cholesterol-treated and control cells, were measured by the Rianen [^125I]cAMP-RIA Kit. Briefly, cholesterol (60 μg/ml, 24 hrs) or cholesterol vehicle (ethanol) were added after 24 hrs cell incubation in delipidated FCS medium. Cells were subsequently washed three times and resuspended (5×10^6, final concentration) in Hanks Hepes (HH)-buffer, pH 7.4 with ascorbinic acid (10 mM) and cAMP-phosphodiesterase inhibitor IBMX (1 mM). Cell suspension (100 μl) was added to 400 μl of the cAMP buffer for 30 min at 20° C. […] Values are from one experiment (representative of three) expressed as pmol cAMP per 10^6 cells. Total proteins were measured by standard procedure.

[7] = tested on: lyso paf receptors on neutrophils (PMN); experiment: [^3H]lyso paf binding to neutrophils (PMN); parameters: species or system human; conditions: for effect of unlabeled ligand on [^3H]lyso paf binding: excess unlabeled paf or lyso paf 500 nM, WEB 2086 1 μM, 20° C.
[8] = tested on: PMN; experiment: cytosolic free calcium (fura-2) in PMN; format: cell-based, human
Experimental: (§1) The concentration of cytosolic free calcium [Ca^2+]i was measured using the [Ca^2+]i indicator fura-2-acetoxymethyl ester (fura-2). […] The spectrofluorophotometer was programmed to shuttle between the two excitation wavelengths of 340 and 380 nm every 5 sec while keeping the emission wavelength of 505 nm. […] Background values were subtracted from all data. The intracellular Ca^2+ was calculated with the formula [[…] is KD of the fura-2 multiplied with the quotient of the fluorescence at 380 nm from the minimal and the maximal [Ca^2+]i fluorescence.

[9] = tested on: eosinophils; experiment: cytosolic free calcium (fura-2) in eosinophils; format: cell-based, human; conditions: EGTA 2 mM
Experimental: as §1

[10] = tested on: human platelets; experiment: acetylhydrolase release from activated platelets; format: cell-based; conditions: Thrombin 0.5 IU/ml; for acetylhydrolase release: Paf 500 nM
[11] = Add. 5 nM, [^3H]paf […], 20° C., 30 min, WEB 2086 1 μM

T2 sequence (P25105 whole entry): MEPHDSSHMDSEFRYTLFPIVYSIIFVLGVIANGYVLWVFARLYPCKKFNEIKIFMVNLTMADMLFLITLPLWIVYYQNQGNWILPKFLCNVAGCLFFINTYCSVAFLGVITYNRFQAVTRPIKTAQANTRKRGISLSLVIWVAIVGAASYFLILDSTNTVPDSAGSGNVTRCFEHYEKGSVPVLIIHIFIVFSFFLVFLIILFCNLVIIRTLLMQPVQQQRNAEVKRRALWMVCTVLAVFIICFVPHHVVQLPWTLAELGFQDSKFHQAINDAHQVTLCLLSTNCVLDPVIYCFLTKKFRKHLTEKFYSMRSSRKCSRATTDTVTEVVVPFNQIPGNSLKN
T1 sequence (P25105 whole entry): as above

Molecule: 2-lyso phosphocholine [LPC]
- interference with [3H]paf binding [1]: did not interfere
- [^3H]paf binding [2, 11]: 322 ± 22 fmol [^3H]paf bound per 2.5×10^6 PMN

Molecule: CCCCCCCCCCCCCCCCCCNC(=O)OCC(COP(=O)([O-])OCC[n+]1ccsc1)OC (racemic) [CV 3988, rac-3-(N-n-octadecylcarbamoyloxy)-2-methoxypropyl 2-tiazolioethyl phosphate]
- increased phospholipid binding (lysine aspirin) antagonized [3]: antagonized

- inhibition of acetylhydrolase activity [4]: not inhibited
Molecule: CCCCCCCCCCCCCCCCOCC(COP(=O)([O-])OCC[N+](C)(C)C)OC(=O)CCCCCCCCCCCCCCC (stereo not shown) [AAGPC, 1-O-hexadecyl-2-palmitoyl-GPC]

Molecule: COc1ccc(SCC(=S)N2CCc3c(sc4c3C(c3ccccc3Cl)=NCc3nnc(C)n3-4)C2)cc1OC [BN 50 739]
- inhibited endothelial cell bound [^3H]paf ([3]; 20 μM): 5.8 fmol

Molecule: CC1C(=O)OC2C(O)C34C5CC(C(C)(C)C)C36C(OC(=O)C6O)OC4(C(=O)O5)C12O (stereo not shown) [BU 52021]
- endothelial cell prostacyclin release ([5]; 10 μM, increased from 50±2): 126±10 pg per ml

Molecule: CC(C)CCC[C@@H](C)[C@H]1CC[C@H]2[C@@H]3CC=C4C[C@@H](O)CC[C@]4(C)[C@H]3CC[C@]12C [Cholesterol, cholesterol]
- release of cAMP levels [6]: increased

Molecule: CC(=O)Oc1ccccc1C(=O)O.NCCCCC(N)C(=O)O [Lysine aspirin]
- endothelial cell bound [^3H]paf, % of the total binding [3]: 177% and 198%

Molecule: CCCCCCCCCCCCCC(=O)O[C@@H]1[C@@H](C)[C@@]2(O)[C@@H](C=C(CO)C[C@]3(O)C(=O)C(C)=C[C@@H]23)[C@@H]2C(C)(C)[C@]12OC(C)=O [PMA, phorbol-12-myristate-13-acetate]
- [^3H]paf binding ([2]; PMA 1 nM, preincubation 0 min at 37° C.): 385 fmol [^3H]paf bound per 2.5×10^6 PMN
- [^3H]paf binding ([2]; PMA 1 nM, preincubation 15 min at 37° C.): 413 fmol [^3H]paf bound per 2.5×10^6 PMN
- [^3H]paf binding ([2]; PMA 16 nM, preincubation 0 min at 37° C.): 219 fmol [^3H]paf bound per 2.5×10^6 PMN
- [^3H]paf binding ([2]; PMA 16 nM, preincubation 15 min at 37° C.): 171 fmol [^3H]paf bound per 2.5×10^6 PMN

- specific [^3H]paf binding, plateau values ([1]; 20° C., 30 min, WEB 2086 400 nM, 3 experiments): 25.8 ± 8.1 fmol
- specific [^3H]paf binding ([1]; 20° C., 30 min, WEB 2086 400 nM, 3 other experiments, no inhibitory effect): 4.3 ± 3.3 fmol
- specific [^3H]paf binding, maximal plateau values ([1]; 20 hrs at 4° C., assessed with unlabeled paf 500 nM or WEB 2086 400 nM): 14.8±5.1 fmol per 2.5×10^5 cells
- specific [^3H]paf binding ([1]; addition 0 nM, WEB 2086 400 nM, 20° C., 30 min): 15.1 ± 8.0^1) fmol per 2.5×10^5 cells
- effect of excess unlabeled ligand on [^3H]paf binding ([2]; paf 500 nM, WEB 2086 1 μM): inhibited
Molecule: Cc1nnc2n1-c1sc(CCC(=O)N3CCOCC3)cc1C(c1ccccc1Cl)=NC2 [WEB 2086, 3-(4-(2-chlorophenyl)-9-methyl-6H-thieno(3,2-f) (1,2,4)triazolo-(4,3-a)-(1,4)diazepine-2-yl)-1-(4-morpholinyl)-1-propanone]
- increased phospholipid binding (lysine aspirin) antagonized [3]: antagonized
- effect of unlabeled ligand on [^3H]lyso paf binding [7]: inefficient
- binding of […] [^3H]lyso paf ([7]; paf 5 nM with WEB 2086 1 μM): 212.0±6.4 fmol/2.5×10^6 PMN
- effect on paf-induced Ca^2+ flux ([8]; WEB 2086 1 μM, 3 min preincubation): shifted to the right the paf dose-response curve
- effect on paf-mediated [Ca^2+]i rise [9]: competitively inhibited
- 6-keto-PGF1-alpha ([5]; 100 nM WEB 2086, increased from 127±3): 145±11 pg per ml

Molecule: CCCCCCCCCCCCCCCCCCOC[C@H](COP(=O)([O-])OCC[N+](C)(C)C)OC(C)=O [[^3H]paf] [1-O-[^3H]-octadecyl-2-acetyl-sn-glycero-3-phosphocholine]
- binding sites per eosinophil [1]: 85×10^3 sites per eosinophil
- Bmax ([1]; 20 hrs at 4° C.): 35.4 fmol per 2.5×10^5 cells
- Kd ([1]; 20 hrs at 4° C., read-out: binding affinity (Kd) on eosinophils): 5.5 nM
- Kd ([2]; 4° C.): 0.44 nM
- total binding of [^3H]paf ([2]; 4° C.): 157.0±27.4 fmol per 2.5×10^6 cells
- total binding of [^3H]paf ([2]; 20° C.): 310.5±13.0 fmol per 2.5×10^6 cells

Molecule: CCCCCCCCCCCCCCCCCCOC[C@@H](O)COP(=O)([O-])OCC[N+](C)(C)C [lyso paf, 1-octadecyl-sn-glycero-3-phosphocholine]
- effect of unlabeled ligand on [^3H]lyso paf binding [7]: inhibited
- cytoplasmic Ca^2+ flux in response to agonist ([8]; 1 to 500 nM, CaCl2 1.3 mM or EGTA 2 mM): induced neither [Ca^2+]i entry nor mobilization
- interference with [3H]paf binding [1]: did not interfere
- specific [^3H]paf binding ([1]; addition 5 nM, WEB 2086 400 nM, 20° C., 30 min): 1.5 ± 1.7 fmol per 2.5×10^5 cells
- specific [^3H]paf binding ([1]; addition 10 nM, WEB 2086 400 nM, 20° C., 30 min): 1.2 ± 1.6 fmol per 2.5×10^5 cells
- specific [^3H]paf binding ([1]; addition 50 nM, WEB 2086 400 nM, 20° C., 30 min): 4.4 ± 3.7 fmol per 2.5×10^5 cells
- [^3H]paf binding [2, 11]: 354 ± 20 fmol [^3H]paf bound per 2.5×10^6 PMN
- [^3H]paf binding ([2]; Add. 10 nM, [^3H]paf […], 20° C., 30 min, WEB 2086 1 μM): 243 ± 16 fmol [^3H]paf bound per 2.5×10^6 PMN
- [^3H]paf binding ([2]; Add. 50 nM, [^3H]paf […], 20° C., 30 min, WEB 2086 1 μM): 240 ± 18 fmol [^3H]paf bound per 2.5×10^6 PMN

Molecule: Thrombin
- released of the total acetylhydrolase ([10]; paf 500 nM, mean±S.E., n=3): 17.2±3.1%
- acetylhydrolase release ([10]; stimulation 0 sec): 2.2 ± 0.9 percentage of the total content of acetylhydrolase
- acetylhydrolase release ([10]; stimulation 15 sec): 8.5 ± 0.7 percentage of the total content of acetylhydrolase
- acetylhydrolase release ([10]; stimulation 30 sec): 13.1 ± 3.9 percentage of the total content of acetylhydrolase
- acetylhydrolase release ([10]; stimulation 60 sec): 12.8 ± 5.1 percentage of the total content of acetylhydrolase
- acetylhydrolase release ([10]; stimulation 120 sec): 10.9 ± 3.1 percentage of the total content of acetylhydrolase
- acetylhydrolase release ([10]; stimulation 180 sec): 17.9 ± 2.6 percentage of the total content of acetylhydrolase
- acetylhydrolase release ([10]; stimulation 300 sec): 17.2 ± 3.1 percentage of the total content of acetylhydrolase
